Experiments:
GLUT-1 = target: T1, GLUT-1 (Homo sapiens, UniProt P11166); assay: Apical-to-basolateral transport of GLUT-1 substrates with and without GLUT-1 inhibitors; type: cell-based; details: A-B, glucose-free HBSS, one hour; for effect on apparent permeability of 6-NBDG: 6-NBDG 100 µM; for effect on apparent permeability of [^3H]-glucose: [3H]-glucose 20 nM
T1 construct: endogenous in cells; host or cells: SBAD0201 hiPSC-derived brain capillary endothelial-like cells (BCECs)
T1 sequence (P11166 1-492): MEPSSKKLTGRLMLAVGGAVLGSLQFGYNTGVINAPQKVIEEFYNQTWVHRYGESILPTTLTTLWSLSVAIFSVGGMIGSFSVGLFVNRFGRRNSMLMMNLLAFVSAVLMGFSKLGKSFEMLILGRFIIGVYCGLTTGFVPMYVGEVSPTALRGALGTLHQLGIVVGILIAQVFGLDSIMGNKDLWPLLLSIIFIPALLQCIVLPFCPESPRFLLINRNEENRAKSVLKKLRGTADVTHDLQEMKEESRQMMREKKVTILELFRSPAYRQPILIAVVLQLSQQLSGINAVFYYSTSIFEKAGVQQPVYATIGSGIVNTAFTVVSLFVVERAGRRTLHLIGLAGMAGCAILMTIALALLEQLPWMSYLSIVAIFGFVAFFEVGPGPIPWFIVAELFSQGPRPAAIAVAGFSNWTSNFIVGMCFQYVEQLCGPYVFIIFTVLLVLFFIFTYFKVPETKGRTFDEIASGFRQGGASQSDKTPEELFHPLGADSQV
Method: (§1) HBSS without glucose was used for transport assays involving [^3H]-glucose and 6-NBDG, whereas HBSS^+ was used for [^3H]-L-leucine. […] The function of GLUT-1 and LAT-1 were evaluated by co-application of the GLUT-1 inhibitors BAY876 (1 and 10 μM) and phloretin (100 μM) and the LAT-1 inhibitors JPH203 (10 μM) and BCH (100 μM). The inhibitors were added to the transport buffer in both chambers 15 min before the addition of the substrates.

GLUT1 = details: cited from earlier work
LAT-1 = target: T2, LAT-1 (Homo sapiens, UniProt Q01650); assay: Apical-to-basolateral transport of [3H]-L-leucine with and without LAT-1 inhibitors; type: cell-based; details: [3H]-L-leucine 9.3 nM, A-B, HBSS+, one hour
T2 construct: endogenous in cells; host or cells: SBAD0201 hiPSC-derived brain capillary endothelial-like cells (BCECs)
Method: as §1

P-gp = assay: Bidirectional transport and uptake of P-gp substrates with and without zosuquidar; details: for vectorial transport (bidirectional): EC-/- medium

T2 sequence (Q01650 whole entry): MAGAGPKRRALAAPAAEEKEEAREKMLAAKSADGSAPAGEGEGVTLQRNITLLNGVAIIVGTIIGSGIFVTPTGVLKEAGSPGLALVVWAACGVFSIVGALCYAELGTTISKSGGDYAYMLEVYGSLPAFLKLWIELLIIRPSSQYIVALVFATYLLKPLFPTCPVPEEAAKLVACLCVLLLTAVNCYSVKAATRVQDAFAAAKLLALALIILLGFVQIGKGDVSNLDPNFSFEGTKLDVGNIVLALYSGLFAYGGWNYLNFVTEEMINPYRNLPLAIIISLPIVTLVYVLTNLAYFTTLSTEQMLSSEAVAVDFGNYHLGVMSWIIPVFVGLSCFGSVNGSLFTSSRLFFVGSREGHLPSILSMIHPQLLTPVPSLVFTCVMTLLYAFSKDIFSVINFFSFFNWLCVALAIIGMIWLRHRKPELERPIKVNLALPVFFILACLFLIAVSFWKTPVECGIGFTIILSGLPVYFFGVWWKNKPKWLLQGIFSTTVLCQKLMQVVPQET
T2 sequence (P08195 102-630 partner): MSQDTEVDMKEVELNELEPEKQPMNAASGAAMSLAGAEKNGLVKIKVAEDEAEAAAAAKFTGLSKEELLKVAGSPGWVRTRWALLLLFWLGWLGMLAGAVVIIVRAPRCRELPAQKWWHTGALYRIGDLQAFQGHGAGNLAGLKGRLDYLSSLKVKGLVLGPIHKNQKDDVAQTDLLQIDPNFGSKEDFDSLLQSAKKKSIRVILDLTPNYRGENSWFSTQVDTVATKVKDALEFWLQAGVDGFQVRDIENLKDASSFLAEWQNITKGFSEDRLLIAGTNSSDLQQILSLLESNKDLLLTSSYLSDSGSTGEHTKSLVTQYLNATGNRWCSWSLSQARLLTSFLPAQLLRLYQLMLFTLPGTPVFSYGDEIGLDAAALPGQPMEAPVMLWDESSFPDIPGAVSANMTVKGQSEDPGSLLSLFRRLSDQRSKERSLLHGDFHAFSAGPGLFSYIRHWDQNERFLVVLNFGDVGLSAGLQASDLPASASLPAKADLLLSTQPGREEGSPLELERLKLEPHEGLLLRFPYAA

Cc1c(NC(=O)c2cc(C(N)=O)nc3cc(F)ccc23)c(C(F)(F)F)nn1Cc1ccc(C#N)cc1 [BAY876]
effect on apparent permeability of 6-NBDG (GLUT-1; 10 µM BAY876): sensitive to the addition
effect on apparent permeability of [^3H]-glucose (GLUT-1; 10 µM BAY876): sensitive to the addition
selectivity for GLUT1 relative to GLUT2, GLUT3, GLUT4 (GLUT1): at least 130 fold

NC1(C(=O)O)CC2CCC1C2 (centres unmarked) [BCH]
effect on transport of [3H]-L-leucine (LAT-1; BCH 100 µM): significantly decreased

Nc1cc(COc2c(Cl)cc(C[C@H](N)C(=O)O)cc2Cl)c2oc(-c3ccccc3)nc2c1 [JPH203]
effect on transport of [3H]-L-leucine (LAT-1; JPH203 10 µM): significantly decreased

C[C@H]1O[C@@H](O[C@H]2[C@@H](O)C[C@H](O[C@H]3[C@@H](O)C[C@H](O[C@H]4CC[C@@]5(C)[C@H](CC[C@@H]6[C@@H]5C[C@@H](O)[C@]5(C)[C@@H](C7=CC(=O)OC7)CC[C@]65O)C4)O[C@@H]3C)O[C@@H]2C)C[C@H](O)[C@@H]1O [[^3H]-digoxin, digoxin]
vectorial transport (bidirectional) (P-gp; [3H]-digoxin 38.2 nM, two hours): No vectorial transport

O=C(CCc1ccc(O)cc1)c1c(O)cc(O)cc1O [phloretin]
effect on apparent permeability of 6-NBDG (GLUT-1; 100 µM phloretin): sensitive to the addition
effect on apparent permeability of [^3H]-glucose (GLUT-1; 100 µM phloretin): sensitive to the addition

COC(=O)c1ccccc1-c1c2ccc(=N)cc-2oc2cc(N)ccc12 [rhodamine 123]
vectorial transport (bidirectional) (P-gp; rhodamine 123 5 µM, two hours): No vectorial transport

O[C@@H](COc1cccc2ncccc12)CN1CCN([C@@H]2c3ccccc3[C@@H]3[C@H](c4ccccc42)C3(F)F)CC1 [zosuquidar]
effect on transport of rhodamine 123 and [3H]-digoxin (P-gp; zosuquidar 0.4 µM, both chambers, two hours): neither the transport nor the uptake of the substrates was affected
effect on uptake of rhodamine 123 and [3H]-digoxin (P-gp; zosuquidar 0.4 µM, uptake probed after the transport study): neither the transport nor the uptake of the substrates was affected

— publication PMC10731806, “Characterization of an iPSC-based barrier model for blood-brain barrier investigations using the SBAD0201 stem cell line” (Fluids and Barriers of the CNS, 2023)
